Laboratory results: patent US7601709
Like-named read-outs stand apart in the source and are kept apart here.

Settings: rcm bond, 40.0 °C

CCOC(=O)[C@@]12C[C@H]1C=CCCCCC[C@H](NC(=O)OC(C)(C)C)C(=O)N1C[C@@H](O)C[C@H]1C(=O)N2
ring closure, yield of all isomers (from C=CCCCCC[C@H](NC(=O)OC(C)(C)C)C(=O)N1C[C@@H](O)C[C@H]1C(=O)N[C@]1(C(=O)OCC)C[C@H]1C=C, Hoveyda 1st generation catalyst, DCM, 14.45 mM, 12.0 h): 87%

CCOC(=O)[C@@]12C[C@H]1C=CCCCCC[C@H](NC(=O)OC(C)(C)C)C(=O)N1C[C@H](c3nnn(Cc4ccc(-c5ccccc5)cc4)n3)C[C@H]1C(=O)N2
ring closure, yield of all isomers (from C=CCCCCC[C@H](NC(=O)OC(C)(C)C)C(=O)N1C[C@H](c2nnn(Cc3ccc(-c4ccccc4)cc3)n2)C[C@H]1C(=O)N[C@]1(C(=O)OCC)C[C@H]1C=C, Hoveyda's catalyst, CH2Cl2, 10.0 mM, 16.0 h): 91.3%

CCOC(=O)[C@@]12C[C@H]1C=CCCCCC[C@H](NC(=O)OC(C)(C)C)C(=O)N1C[C@H](n3nnc(-c4ccccc4)n3)C[C@H]1C(=O)N2
ring closure, yield of all isomers (from C=CCCCCC[C@H](NC(=O)OC(C)(C)C)C(=O)N1C[C@H](n2nnc(-c3ccccc3)n2)C[C@H]1C(=O)N[C@]1(C(=O)OCC)C[C@H]1C=C, Hoveyda catalyst, DCM, 2.18 mM, 20.0 h): 85.5%
